From article PMC2229062 (The Journal of General Physiology, 1991)

System: GK (G protein coupled to the muscarinic K+ channel IK.ACh)
Assay: inside-out patch clamp, inhibition of GTP-induced IK.ACh openings, Hill fit
Assay type: biochemical, Cavia porcellus
Details: no agonist; against 10 µM GTP; same; assumed competitive with GTP

Nc1nc2c(ncn2[C@@H]2O[C@H](COP(=O)(O)OP(=O)(O)O)[C@@H](O)[C@H]2O)c(=O)[nH]1 [GDP] was tested, and the IC50 was 510 nM.
